# Measurements taken from PubChem BioAssay AID248 (DTP/NCI, 2004).
# Values joined by “and” are separate entries in the source; they are usually repeats but may differ in a detail not shown here. Identical values can stand only once. Inconclusive results and toxic doses are left out. Square brackets hold non-standard residues; d marks the D form. Peptide text beside a SMILES is read from it. * marks the point of attachment. ξ: configuration not given here. ξF = NC(Cc1ccccc1)C(=O)O; Cbz = O=C(OCc1ccccc1)*
# Test system: L1210 leukemia ip in BDF1 mice, survival T/C
# Test: NCI In Vivo Anticancer Drug Screen. Data for tumor model L1210 Leukemia (intraperitoneal) in B6D2F1 (BDF1) mice
# Conditions: endpoint: mean survival time, higher = longer survival
# Procedure, shortened: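 Transplantable tumor model; survival measured in treated vs vehicle control mice. Value = treated/control.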
# [1] = dose: 50.0 mg/kg/injection, schedule: Q01DX009 (ip), vehicle: saline with Tween-80
# [2] = dose: 100.0 mg/kg/injection, schedule: Q01DX009 (ip), vehicle: saline with Tween-80
# [3] = dose: 100.0 mg/kg/injection, schedule: Q04DX003 (ip), vehicle: saline with Tween-80
# [4] = dose: 200.0 mg/kg/injection, schedule: Q04DX003 (ip), vehicle: saline with Tween-80
# [5] = dose: 400.0 mg/kg/injection, schedule: Q04DX003 (ip), vehicle: saline with Tween-80
# [6] = dose: 100.0 mg/kg/injection, schedule: Q01DX001 (ip), vehicle: saline
# [7] = dose: 200.0 mg/kg/injection, schedule: Q01DX001 (ip), vehicle: saline
# [8] = dose: 100.0 mg/kg/injection, schedule: Q01DX009 (ip), vehicle: Klucel (hydroxypropylcellulose) (HPC)
# [9] = dose: 50.0 mg/kg/injection, schedule: Q04DX002 (ip), vehicle: Klucel (hydroxypropylcellulose) (HPC)
# [10] = dose: 100.0 mg/kg/injection, schedule: Q04DX002 (ip), vehicle: Klucel (hydroxypropylcellulose) (HPC)
# [11] = dose: 200.0 mg/kg/injection, schedule: Q04DX002 (ip), vehicle: Klucel (hydroxypropylcellulose) (HPC)
# [12] = dose: 200.0 mg/kg/injection, schedule: Q01DX009 (ip), vehicle: saline with Tween-80
smiles,measurement,setting,value
COC1=CC2C3=CC(C)C4C(=O)OC(=O)C4C3C1C1C(=O)OC(=O)C21 (stereo unspecified),T/C,[1],105 % of control
same,T/C,[2],94 % of control
CC(C)=C(c1ccc(Br)cc1)c1ccc(Br)cc1,T/C,"dose: 100.0 mg/kg/injection, schedule: Q01DX009 (ip), vehicle: acetone",93 % of control
same,T/C,[3],105 % of control
same,T/C,[4],97 % of control
same,T/C,[5],94 % of control
CCOC(=O)c1ccc(OC2CCCCO2)c(OC2CCCCO2)c1 (stereo unspecified),T/C,[3],98 % of control
same,T/C,[4],98 % of control
same,T/C,[5],98 % of control
C(CC1CO1)CC1OC1CC1CO1 (stereo unspecified),T/C,"dose: 15.0 mg/kg/injection, schedule: Q01DX009 (ip), vehicle: Klucel (hydroxypropylcellulose) (HPC)",102 % of control
same,T/C,"dose: 18.0 mg/kg/injection, schedule: Q04DX003 (ip), vehicle: saline with Tween-80",110 % of control
same,T/C,"dose: 26.0 mg/kg/injection, schedule: Q04DX003 (ip), vehicle: saline with Tween-80",110 % of control
same,T/C,"dose: 30.0 mg/kg/injection, schedule: Q01DX009 (ip), vehicle: Klucel (hydroxypropylcellulose) (HPC)",105 % of control
same,T/C,"dose: 39.0 mg/kg/injection, schedule: Q04DX003 (ip), vehicle: saline with Tween-80",106 % of control
same,T/C,"dose: 40.0 mg/kg/injection, schedule: Q04DX003 (ip), vehicle: saline",108 % of control
same,T/C,"dose: 45.0 mg/kg/injection, schedule: Q01DX009 (ip), vehicle: Klucel (hydroxypropylcellulose) (HPC)",108 % of control
same,T/C,"dose: 59.0 mg/kg/injection, schedule: Q04DX003 (ip), vehicle: saline with Tween-80",108 % of control
same,T/C,"dose: 60.0 mg/kg/injection, schedule: Q01DX009 (ip), vehicle: Klucel (hydroxypropylcellulose) (HPC)",113 % of control
same,T/C,"dose: 80.0 mg/kg/injection, schedule: Q04DX003 (ip), vehicle: saline",118 % of control
same,T/C,"dose: 89.0 mg/kg/injection, schedule: Q04DX003 (ip), vehicle: saline with Tween-80",117 % of control
same,T/C,"dose: 120.0 mg/kg/injection, schedule: Q01DX009 (ip), vehicle: other",119 % of control
same,T/C,"dose: 133.0 mg/kg/injection, schedule: Q01DX009 (ip), vehicle: saline with Tween-80",97 % of control
same,T/C,"dose: 133.0 mg/kg/injection, schedule: Q04DX003 (ip), vehicle: saline with Tween-80",115 % of control
same,T/C,"dose: 160.0 mg/kg/injection, schedule: Q04DX003 (ip), vehicle: saline",154 % of control
O=S(=O)(c1ccc(Br)cc1)c1ccc(Br)cc1,T/C,[3],98 % of control
same,T/C,[4],98 % of control
same,T/C,[5],104 % of control
CSc1nc(F)nc2c1ncn2C1OC(CO)C(O)C1O (stereo unspecified),T/C,[6],88 % of control
same,T/C,[7],100 % of control
O=C(N/N=C/c1cc([N+](=O)[O-])ccc1O)c1cccc2ccccc12,T/C,[6],90 % of control
same,T/C,[7],90 % of control
same,T/C,"dose: 400.0 mg/kg/injection, schedule: Q01DX001 (ip), vehicle: saline",92 % of control
CCCCCCCCOc1ccc(C)cc1,T/C,[8],107 % of control
same,T/C,"dose: 200.0 mg/kg/injection, schedule: Q01DX009 (ip), vehicle: Klucel (hydroxypropylcellulose) (HPC)",94 % of control
same,T/C,"dose: 400.0 mg/kg/injection, schedule: Q01DX009 (ip), vehicle: Klucel (hydroxypropylcellulose) (HPC)",97 % of control
OCC(O)C(O)CO (stereo unspecified) (tested in a mixture with another compound),T/C,[9],104 % of control
same,T/C,[10],95 % of control
same,T/C,[11],98 % of control
O=C(CC(=O)c1ccccc1)c1ccccc1.O=C(CC(=O)c1ccccc1)c1ccccc1.O=C(CC(=O)c1ccccc1)c1ccccc1.[Al],T/C,"dose: 100.0 mg/kg/injection, schedule: Q04DX002 (ip), vehicle: gum acacia",100 % of control
same,T/C,"dose: 200.0 mg/kg/injection, schedule: Q04DX002 (ip), vehicle: gum acacia",97 % of control
same,T/C,"dose: 400.0 mg/kg/injection, schedule: Q04DX002 (ip), vehicle: gum acacia",90 % of control
CC1(C(Cl)(Cl)Cl)C=CC(O)C=C1 (stereo unspecified),T/C,"dose: 25.0 mg/kg/injection, schedule: Q01DX009 (ip), vehicle: Klucel (hydroxypropylcellulose) (HPC)",90 % of control
same,T/C,"dose: 25.0 mg/kg/injection, schedule: Q04DX002 (ip), vehicle: Klucel (hydroxypropylcellulose) (HPC)",87 % of control
same,T/C,"dose: 50.0 mg/kg/injection, schedule: Q01DX009 (ip), vehicle: Klucel (hydroxypropylcellulose) (HPC)",93 % of control
same,T/C,[9],93 % of control
same,T/C,[8],97 % of control and 90 % of control
same,T/C,[10],97 % of control and 89 % of control
same,T/C,"dose: 150.0 mg/kg/injection, schedule: Q01DX009 (ip), vehicle: Klucel (hydroxypropylcellulose) (HPC)",93 % of control
COc1cc2c(cc1OC)[C@@H]1Cc3ccc(OC)c(OC)c3CN1CC2,T/C,"dose: 100.0 mg/kg/injection, schedule: Q01DX001 (ip), vehicle: carboxymethylcellulose (CMC)",102 % of control
same,T/C,"dose: 200.0 mg/kg/injection, schedule: Q01DX001 (ip), vehicle: carboxymethylcellulose (CMC)",110 % of control
same,T/C,"dose: 400.0 mg/kg/injection, schedule: Q01DX001 (ip), vehicle: carboxymethylcellulose (CMC)",94 % of control
S=P(NCc1cccc(CNP(=S)(N2CC2)N2CC2)c1)(N1CC1)N1CC1,T/C,"dose: 75.0 mg/kg/injection, schedule: Q01DX001 (ip), vehicle: carboxymethylcellulose (CMC)",98 % of control
same,T/C,"dose: 150.0 mg/kg/injection, schedule: Q01DX001 (ip), vehicle: carboxymethylcellulose (CMC)",98 % of control
same,T/C,"dose: 300.0 mg/kg/injection, schedule: Q01DX001 (ip), vehicle: carboxymethylcellulose (CMC)",93 % of control
Cc1ccc(CCCCCCCCCCCC(=O)O)cc1,T/C,[1],93 % of control
same,T/C,[2],97 % of control
same,T/C,[12],93 % of control
Cc1cc(C(=O)CCl)c(CN2C(=O)c3ccccc3C2=O)c(=O)n1C,T/C,[2],98 % of control
same,T/C,[3],108 % of control
same,T/C,[12],100 % of control
same,T/C,[4],105 % of control
same,T/C,"dose: 400.0 mg/kg/injection, schedule: Q01DX009 (ip), vehicle: saline with Tween-80",92 % of control
same,T/C,[5],110 % of control
SC12CC3CC(CC(C3)C1)C2,T/C,[10],87 % of control
same,T/C,[11],94 % of control
same,T/C,"dose: 400.0 mg/kg/injection, schedule: Q04DX002 (ip), vehicle: Klucel (hydroxypropylcellulose) (HPC)",98 % of control
O=[N+]([O-])c1cc(S(=O)(=O)C(F)F)ccc1Cl,T/C,"dose: 25.0 mg/kg/injection, schedule: Q04DX003 (ip), vehicle: gum acacia",97 % of control
same,T/C,"dose: 50.0 mg/kg/injection, schedule: Q01DX009 (ip), vehicle: gum acacia",93 % of control
same,T/C,"dose: 50.0 mg/kg/injection, schedule: Q04DX003 (ip), vehicle: gum acacia",97 % of control
same,T/C,"dose: 100.0 mg/kg/injection, schedule: Q01DX009 (ip), vehicle: gum acacia",88 % of control
same,T/C,"dose: 100.0 mg/kg/injection, schedule: Q04DX003 (ip), vehicle: gum acacia",99 % of control and 102 % of control
[Br][Pb]([c]1ccccc1)([c]1ccccc1)[c]1ccccc1,T/C,"dose: 1.5 mg/kg/injection, schedule: Q01DX009 (ip), vehicle: saline",103 % of control
same,T/C,"dose: 1.56 mg/kg/injection, schedule: Q04DX003 (ip), vehicle: acetone",93 % of control
same,T/C,"dose: 3.12 mg/kg/injection, schedule: Q01DX009 (ip), vehicle: saline",100 % of control
same,T/C,"dose: 3.12 mg/kg/injection, schedule: Q04DX003 (ip), vehicle: acetone",91 % of control
same,T/C,"dose: 6.25 mg/kg/injection, schedule: Q01DX009 (ip), vehicle: saline",92 % of control
same,T/C,"dose: 6.25 mg/kg/injection, schedule: Q04DX003 (ip), vehicle: acetone",88 % of control
N#CC1(C(N)=O)OC12CCS(=O)(=O)c1ccccc12 (stereo unspecified),T/C,[6],87 % of control
same,T/C,[7],94 % of control
COC(=O)C(Cc1ccccc1)NC(=O)CNC(=O)CNC(=O)OCc1ccccc1 (stereo not drawn) (Cbz-Gly-Gly-[ξF]-OMe),T/C,"dose: 100.0 mg/kg/injection, schedule: Q04DX003 (ip), vehicle: other",98 % of control
same,T/C,"dose: 200.0 mg/kg/injection, schedule: Q04DX003 (ip), vehicle: other",97 % of control
same,T/C,"dose: 400.0 mg/kg/injection, schedule: Q04DX003 (ip), vehicle: other",106 % of control
CCOP(=O)(Cc1ccc(N=Cc2cnc3nc(NC(C)=O)[nH]c(=O)c3n2)cc1)OCC,T/C,"dose: 100.0 mg/kg/injection, schedule: Q01DX001 (ip), vehicle: other",98 % of control
same,T/C,"dose: 200.0 mg/kg/injection, schedule: Q01DX001 (ip), vehicle: other",105 % of control
same,T/C,"dose: 400.0 mg/kg/injection, schedule: Q01DX001 (ip), vehicle: other",96 % of control
N/N=C(\N)c1cn(C2OC(CO)C(O)C2O)c2ncnc(N)c12 (stereo unspecified),T/C,"dose: 5.0 mg/kg/injection, schedule: Q01DX001 (ip), vehicle: carboxymethylcellulose (CMC)",109 % of control
